According to ChEMBL document CHEMBL4725397, “SAR study of bisamides as cyclophilin a inhibitors for the development of host-targeting therapy for hepatitis C virus infection” (Bioorg Med Chem, 2020):

Key:
[1] = Cytotoxicity against human Huh7.5 cells assessed as decrease in cell viability after 3 days by MTT assay; type: cell-based; settings: time 3 day
[2] = Antiviral activity against HCV genotype 2a JFH-1 infected in human Huh7.5 cells after 3 days by renilla luciferase reporter gene assay; type: functional, cell-based, Hepatitis C virus subtype 2a; settings: Hepatitis C virus, JFH-1, Huh7.5, 72 h
[3] = biological target: Peptidyl-prolyl cis-trans isomerase A (Homo sapiens, UniProt P62937); experiment: Binding affinity to Cyclophilin A (unknown origin) by surface plasmon resonance analysis
[4] = Selectivity index, ratio of CC50 for human Huh7.5 cells to EC50 for genotype 2a HCV JFH-1 infected in human Huh7.5 cells; type: toxicity, cell-based
Hepatitis C virus = experiment: Antiviral activity against 0.05 MOI HCV JFH-1 infected in human Huh7.5 assessed as suppression of viral replication after 4 days post-infection by western blot analysis; type: functional, organism-based; settings: Hepacivirus hominis, time 4.0 day

Sequence of Peptidyl-prolyl cis-trans isomerase A (P62937 whole entry): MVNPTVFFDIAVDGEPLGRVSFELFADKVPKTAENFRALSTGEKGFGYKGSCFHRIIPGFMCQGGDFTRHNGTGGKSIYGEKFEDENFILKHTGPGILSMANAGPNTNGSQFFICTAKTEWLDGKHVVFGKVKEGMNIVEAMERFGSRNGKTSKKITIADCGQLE

| Structure (SMILES) | CC50 at 72 h [1] [µM] | EC50 [2] [µM] | Kd [3] [µM] | selectivity ratio [4] | Activity (Hepatitis C virus) |
| --- | --- | --- | --- | --- | --- |
| CC(C)(C)NC(=O)C(c1ccc([N+](=O)[O-])cc1)N(C(=O)Cc1c[nH]c2ccccc12)c1ccc(Br)cc1 (centres undefined) | 7 | > 7 | – | – | – |
| CC(C)c1ccc(N(C(=O)Cc2c[nH]c3ccccc23)C(C(=O)NC2CCCCC2)c2ccc([N+](=O)[O-])cc2)cc1 (centres undefined) | – | – | 4.6 | – | – |
| O=C(NC1CCCCC1)C(c1ccc([N+](=O)[O-])cc1)N(C(=O)Cc1c[nH]c2ccccc12)c1ccc(Br)cc1 (centres undefined) | 13.8 | 6.3 | – | 2.2 | – |
| COc1cccc(CCN(C(=O)Cc2c[nH]c3ccccc23)C(C(=O)NC2CCCCC2)c2ccc([N+](=O)[O-])cc2)c1 (centres undefined) | 27.6 | > 27.6 | – | – | – |
| COc1ccc(N(C(=O)Cc2c[nH]c3ccccc23)C(C(=O)NC2CCCCC2)c2ccc([N+](=O)[O-])cc2)cc1OC (centres undefined) | 57.6 | 3.2 | – | 18 | – |
| COc1ccc(CCN(C(=O)c2cc3ccccc3[nH]2)C(C(=O)NC2CCCCC2)c2ccc([N+](=O)[O-])cc2)cc1OC (centres undefined) | > 100 | 31.9 | – | > 3.1 | – |
| O=C(NC1CCCCC1)C(c1ccc([N+](=O)[O-])cc1)N(C(=O)Cc1c[nH]c2ccccc12)c1ccccc1 (centres undefined) | 11.9 | 6 | – | 2 | – |
| COc1ccc(CCC(=O)N(c2ccc(Br)cc2)C(C(=O)NC2CCCCC2)c2ccc([N+](=O)[O-])cc2)cc1 (centres undefined) | 9.8 | 6.1 | – | – | – |
| COc1cccc(CCN(C(=O)c2cc3ccccc3[nH]2)C(C(=O)NC2CCCCC2)c2ccc([N+](=O)[O-])cc2)c1 (centres undefined) | 43.1 | 22.2 | – | 1.9 | – |
| COc1cc(C(C(=O)NC2CCCCC2)N(C(=O)Cc2c[nH]c3ccccc23)c2ccc(C(C)C)cc2)cc(OC)c1OC (centres undefined) | > 100 | 5.2 | – | – | – |
| COc1ccc(N(C(=O)Cc2c[nH]c3ccccc23)C(C(=O)NC2CCCCC2)c2ccc([N+](=O)[O-])cc2)cc1 (centres undefined) | 8.5 | 2.5 | – | 3.4 | – |
| COc1ccc(CCN(C(=O)Cc2c[nH]c3ccccc23)C(C(=O)NC2CCCCC2)c2ccc([N+](=O)[O-])cc2)cc1OC (centres undefined) | > 100 | 4.2 | – | > 23.8 | Dose-dependent effect |
| CCCCCNC(=O)C(c1ccc([N+](=O)[O-])cc1)N(C(=O)Cc1c[nH]c2ccccc12)c1ccc(Br)cc1 (centres undefined) | 7 | > 7 | – | – | – |
| COc1ccc(CCN(C(=O)Cc2c[nH]c3ccccc23)C(C(=O)NC2CCCCC2)c2cc(OC)c(OC)c(OC)c2)cc1OC (centres undefined) | > 100 | 5.3 | – | – | – |
| COc1ccc(N(C(=O)c2cc3ccccc3[nH]2)C(C(=O)NC2CCCCC2)c2ccc([N+](=O)[O-])cc2)cc1OC (centres undefined) | > 100 | 4.1 | – | > 24.5 | Dose-dependent effect |
| NC(=O)c1ncn([C@@H]2O[C@H](CO)[C@@H](O)[C@H]2O)n1 [RIBAVIRIN] | > 100 | 16.3 | – | > 6.1 | – |
| COc1ccc(CN(C(=O)Cc2c[nH]c3ccccc23)C(C(=O)NC2CCCCC2)c2ccc([N+](=O)[O-])cc2)cc1 (centres undefined) | 56.3 | > 56.3 | – | – | – |
